Results taken from patent publication US5576310A, “11-benzaldoxime-17β-methoxy-17α-methoxymethyl-estrasdiene derivatives, methods for their production and pharmaceuticals containing such compounds” (Jenapharm GmbH, priority 1994, dated 1996).
One block for each compound: values may come before it.

Assays:
[1] = molecular target: T1, glucocorticoid receptor (Rattus norvegicus, UniProt P06536); assay: Receptor bonding affinity: competitive bonding of 3H-dexamethasone and test compound to glucocorticoid receptor in thymus cytosol of the adrenalectomized rat; assay type: binding; conditions: dexamethasone = 100%; tracer 3H-dexamethasone 20 nM; 18 hours at 0-4 °C; quotient of IC50 values x 100%
T1 construct: receptors in the cytosol from animal target organs; from tissue; host or cells: thymus cytosol of adrenalectomized rat
T1 sequence (P06536 1-795): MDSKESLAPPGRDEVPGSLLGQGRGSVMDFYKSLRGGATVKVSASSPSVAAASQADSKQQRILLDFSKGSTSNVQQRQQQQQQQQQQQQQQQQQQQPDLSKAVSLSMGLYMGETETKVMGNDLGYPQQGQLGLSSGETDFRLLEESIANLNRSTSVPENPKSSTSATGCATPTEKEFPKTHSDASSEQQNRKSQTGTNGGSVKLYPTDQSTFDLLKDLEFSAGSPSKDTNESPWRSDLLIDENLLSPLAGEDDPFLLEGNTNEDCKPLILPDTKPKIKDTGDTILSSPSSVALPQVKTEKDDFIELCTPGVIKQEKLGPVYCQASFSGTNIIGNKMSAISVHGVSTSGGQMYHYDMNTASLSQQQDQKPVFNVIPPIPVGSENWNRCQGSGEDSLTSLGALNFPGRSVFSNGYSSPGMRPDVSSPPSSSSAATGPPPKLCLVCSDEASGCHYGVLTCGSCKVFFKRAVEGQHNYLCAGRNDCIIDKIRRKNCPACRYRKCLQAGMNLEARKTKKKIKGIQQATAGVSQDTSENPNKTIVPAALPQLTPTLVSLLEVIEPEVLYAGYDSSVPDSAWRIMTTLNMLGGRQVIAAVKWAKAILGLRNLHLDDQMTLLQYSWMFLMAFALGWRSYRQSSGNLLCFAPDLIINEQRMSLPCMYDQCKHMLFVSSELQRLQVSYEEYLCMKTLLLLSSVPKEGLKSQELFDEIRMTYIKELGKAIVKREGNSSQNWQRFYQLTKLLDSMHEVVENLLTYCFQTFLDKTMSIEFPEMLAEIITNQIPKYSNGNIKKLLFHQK
Procedure: Measurement of bonding affinity for receptors
Receptor bonding affinity was determined by competitive bonding of a specifically binding ^3 H labelled hormone (tracer) and the compound to be tested to receptors in the cytosol from animal target organs. It was tried to obtain receptor saturation and a balanced reaction. The following incubation conditions were selected:
Glucocorticoid receptor: thymus cytosol of the adrenalectomized rat, thymi kept at -30° C., buffer: TED. Tracer: ^3 H-dexamethasone, 20 nM; reference substance: dexamethasone.
After an incubation period of 18 hours at 0°-4° C., bonded and free steroid was separated by mixing in active carbon/dextrane (1%/0.1%), centrifuging off and measuring the bonded ^3 H activity in the supernatant.
The IC50 for the compound to be tested and for the reference substance were determined from measurements in series of concentrations.

[2] = tested on: early gravidity in the rat; assay: Inhibition of early gravidity (early abortive effect) in the rat after subcutaneous application from the 5th to 7th day of pregnancy; assay type: in vivo; conditions: for complete gravidity inhibition (N*/N) / complete gravidity inhibition (%) / ED 50 (complete gravidity inhibition): d5-d7; for complete gravidity inhibition (N*/N): N* females not pregnant / N inseminated females; for complete gravidity inhibition (N*/N) / complete gravidity inhibition (%): empty uteri; for ED 50 (complete gravidity inhibition): s.c., graphic determination
Procedure: Early abortive effect of RU 486 and J 914 (Example 1) and
J 900 (Example 2) in the rat after subcutaneous
application from the 5th to 7th day of pregnancy (dose
0.2 ml/animal/day in benzylbenzoate/castor oil
N number of inseminated females
N* number of females not pregnant
^++ graphic determination
Inhibition of early gravidity in the rat:
Female rats are mated in the pro-oestrus. If semen is found in the vaginal smear on the next day, this day is counted as day 1 (=d1) of the gravidity. Treatment with the test substance or vehicle is applied on d5-d7, autopsy is carried out on d9. The substances are injected subcutaneously in 0.2 ml of vehicle (benzyl benzoate/castor oil 1+4).

Relative molar bonding affinity (RBA) for the glucocorticoid receptor [1]: 39%
SMILES: CN(C)c1ccc([C@H]2C[C@]3(C)[C@@H](CC[C@]3(O)CCCO)[C@@H]3CCC4=CC(=O)CCC4=C32)cc1 [ZK 98299, reference compound]

Relative molar bonding affinity (RBA) for the glucocorticoid receptor [1]: 66%
SMILES: CCOC(=O)ON=Cc1ccc([C@H]2C[C@@]3(C)[C@@H](CC[C@]3(COC)OC)[C@@H]3CCC4=CC(=O)CCC4=C32)cc1 [Example 2, 11β-[4-(ethoxycarbonyloximinomethyl)phenyl]-17β-methoxy-17α-methoxymethyl-estra-4,9-diene-3-on]
complete gravidity inhibition (N*/N) ([2]; 0.3 mg/animal/day s.c.): 0/5 | complete gravidity inhibition (%) ([2]; 0.3 mg/animal/day s.c.): 0% | complete gravidity inhibition (N*/N) ([2]; 1.0 mg/animal/day s.c.): 9/10 | complete gravidity inhibition (%) ([2]; 1.0 mg/animal/day s.c.): 90% | inhibition capability of nidation, in words ([2]; as compared to RU 486): superior inhibition capability of nidation | ED 50 (complete gravidity inhibition) [2]: 0.6 mg/animal/day

Relative molar bonding affinity (RBA) for the glucocorticoid receptor [1]: 73%
SMILES: COC[C@]1(OC)CC[C@H]2[C@@H]3CCC4=CC(=O)CCC4=C3[C@@H](c3ccc(C=NOC(C)=O)cc3)C[C@@]21C [Example 1, 11β-[4-(acetyloximinomethyl)phenyl]-17β-methoxy-17α-methoxymethyl-estra-4,9-diene-3-on]
complete gravidity inhibition (N*/N) ([2]; 0.1 mg/animal/day s.c.): 0/6 | complete gravidity inhibition (%) ([2]; 0.1 mg/animal/day s.c.): 0% | complete gravidity inhibition (N*/N) ([2]; 0.3 mg/animal/day s.c.): 1/5 | complete gravidity inhibition (%) ([2]; 0.3 mg/animal/day s.c.): 20% | complete gravidity inhibition (N*/N) ([2]; 1.0 mg/animal/day s.c.): 7/10 | complete gravidity inhibition (%) ([2]; 1.0 mg/animal/day s.c.): 70% | complete gravidity inhibition (N*/N) ([2]; 3.0 mg/animal/day s.c.): 5/5 | complete gravidity inhibition (%) ([2]; 3.0 mg/animal/day s.c.): 100% | ED 50 (complete gravidity inhibition) [2]: 0.6 mg/animal/day

SMILES: CC#C[C@]1(O)CC[C@H]2[C@@H]3CCC4=CC(=O)CCC4=C3[C@@H](c3ccc(N(C)C)cc3)C[C@@]21C [RU 486, reference compound]
Relative molar bonding affinity (RBA) for the glucocorticoid receptor [1]: 685% | complete gravidity inhibition (N*/N) ([2]; 0.3 mg/animal/day s.c.): 0/5 | complete gravidity inhibition (%) ([2]; 0.3 mg/animal/day s.c.): 0% | complete gravidity inhibition (N*/N) ([2]; 1.0 mg/animal/day s.c.): 2/5 | complete gravidity inhibition (%) ([2]; 1.0 mg/animal/day s.c.): 40% | complete gravidity inhibition (N*/N) ([2]; 3.0 mg/animal/day s.c.): 5/5 | complete gravidity inhibition (%) ([2]; 3.0 mg/animal/day s.c.): 100% | ED 50 (complete gravidity inhibition) [2]: 1.1 mg/animal/day
